{"source": "patent US20160074643A1", "about": "“SKIN CARE PRODUCTS” (The Procter & Gamble Company, priority 2014, published 2016)", "test": "Vitamin B3 in vivo skin penetration study #2: Tape Stripping Method, magnetic vs non-magnetic applicator", "parameters": "species or system human; amount of niacinamide recovered from tape strip / amount of niacinamide recovered from tape strip, Avg / amount of niacinamide recovered, Sum 2-10 / amount of niacinamide recovered, Sum 2-10, Avg / amount of niacinamide recovered, Sum 6-10 / amount of niacinamide recovered, Sum 6-10, Avg: unit not given here", "details": "for amount of niacinamide recovered from tape strip, Avg / amount of niacinamide recovered, Sum 2-10, Avg / amount of niacinamide recovered, Sum 6-10, Avg: average across all 10 test sites; for amount of niacinamide recovered, Sum 2-10, Avg / amount of niacinamide recovered, Sum 2-10: sum of strips 2-10; for amount of niacinamide recovered, Sum 6-10, Avg / amount of niacinamide recovered, Sum 6-10: sum of strips 6-10", "procedure": "This method provides a suitable means of measuring the amount of skin care active present in skin, and comparing active versus passive application of the skin care active. Two identical circular areas of 7.9 cm^2 were marked on the volar forearms of volunteers. A measured dose (approximately 9 mg) of the skin care formulation (ingredients shown in Table 1) was applied to the delineated areas using a screw actuated syringe. Active application was carried out using purpose made applicators having a metallic aluminium skin contact surface behind which was the magnetic array. The cream was spread evenly across the entire delineated region using the applicator in a sweeping motion with a fixed speed of approximately 3.5 cm/s to mimic normal finger application. Passive application was performed using the tip of a finger in a sweeping motion identical to that of application using the applicator. The application period was 30 seconds during which time visual inspection was used to ensure even distribution and absorption of the formulation by skin. The application area was then left uncovered for a further 30 minutes to ensure complete absorption. The application area was then wiped thoroughly to remove any surface material, followed by carrying out tape stripping.\nThe Tape Stripping Method can be carried out using commercial pre-cut 22.1 mm tape stripping adhesive discs (D-SQUAME brand tape strips from Cuderm Corporation or equivalent) with an adhesive area of 3.8 cm^2. A 22.1 mm diameter circular region was marked at the center of the application area. A tape stripping adhesive disc was placed over the marked area and even pressure applied using a neoprene roller, rolled ten times over the surface. The adhesive disc was removed from the skin surface in a single pulling motion using manual tweezers. To ensure even removal of the stratum corneum, subsequent discs were removed in a north, south, east and west orientation. Each adhesive disc was non-destructively analyzed for relative protein content using the SquameScan™ 850 instrument (Heiland Electronics Wetzlar Germany). The adhesive disc was then immediately placed into a glass vial containing extraction solvent in preparation for subsequent analysis. Solvent extractions are conducted on each tape strip using conventional extraction methods, which are well known to those of ordinary skill in the art, and measuring the amount of niacinamide present in the extract, for example, by high performance liquid chromatography (“HPLC”) and/or mass spectrometry.\nIn this example, 5 test subjects (A to E in Tables 13 and 14) were selected. […] The applicator used for active application included Array #8 from Table 2. The applicator used for passive application was the same as the one used for active application except without the magnetic array. Each forearm included an active application test site and a passive application site for a total of 10 active test sites and 10 passive sites. The application time was 30 seconds with a speed of motion of approximately 3 cm per second, equating to a gentle rubbing action. Application of the composition was followed by a 30 minute absorption period. […] The level of niacinamide recovered from each tape strip was measured using HPLC.\nThe average value across all test sites is shown in the second to last cell of the row. The standard error of the mean (SEM) is shown in the last column of Tables 13 and 14. The SEM is calculated by dividing the standard deviation by the square root of the number of test sites. The active versus passive application results from Tables 13 and 14 are graphically illustrated in FIG. 7.\nThe enhancement values shown in Table 15 are calculated by dividing the active value from Table 14 by the passive value from Table 13. The average shown in the last column of Table 15 is calculated by averaging the enhancement values of all the test sites. […]", "key": {"[1]": {"details": "active value divided by passive value, average of all test sites"}, "[2]": {"details": "active value divided by passive value, individual test sites, Subjects A-E, Site 1/2"}, "[3]": {"details": "Active Application (magnetic applicator, Array #8)"}, "[4]": {"details": "Active Application (magnetic applicator, Array #8), individual test sites, Subjects A-E, Site 1/2"}, "[5]": {"details": "Passive Application (non-magnetic applicator)"}, "[6]": {"details": "Passive Application (non-magnetic applicator), individual test sites, Subjects A-E, Site 1/2"}}, "note": "Where “and” joins values, the source holds several entries; their conditions need not be identical. Identical values can stand only once.", "data": [{"smiles": "NC(=O)c1cccnc1", "note": "[niacinamide]", "values": [{"measurement": "Enhancement value Strips 2-10, Avg", "setting": "[1]", "result": 1.47}, {"measurement": "Enhancement value Strips 6-10, Avg", "setting": "[1]", "result": 1.46}, {"measurement": "Enhancement value Strips 2-10", "setting": "[2]", "result": "1.63 and 1.35 and 1.77 and 1.47 and 1.51 and 1.26 and 1.19 and 1.39 and 1.59 and 1.54"}, {"measurement": "Enhancement value Strips 6-10", "setting": "[2]", "result": "1.53 (2×) and 1.34 and 1.71 and 1.41 and 1.83 and 1.19 and 1.21 and 1.39 and 1.43"}, {"measurement": "niacinamide delivered into the skin, active compared to passive application", "setting": "magnetic applicator vs non-magnetic applicator", "result": "about 1.5 ×"}, {"measurement": "amount of niacinamide recovered from tape strip, Avg", "setting": "strip 1, Active Application (magnetic applicator, Array #8)", "result": 4.43}, {"measurement": "amount of niacinamide recovered from tape strip, Avg", "setting": "strip 1, Passive Application (non-magnetic applicator)", "result": 3.87}, {"measurement": "amount of niacinamide recovered from tape strip", "setting": "strip 1, Passive Application (non-magnetic applicator), individual test sites, Subjects A-E, Site 1/2", "result": "2.62 and 3.31 and 3.07 and 2.86 and 3.16 and 5.69 and 4.14 and 6.28 and 0.54 and 7.00"}, {"measurement": "amount of niacinamide recovered from tape strip, Avg", "setting": "strip 2, Active Application (magnetic applicator, Array #8)", "result": 6.10}, {"measurement": "amount of niacinamide recovered from tape strip, Avg", "setting": "strip 2, Passive Application (non-magnetic applicator)", "result": 4.12}, {"measurement": "amount of niacinamide recovered from tape strip", "setting": "strip 2, Passive Application (non-magnetic applicator), individual test sites, Subjects A-E, Site 1/2", "result": "2.66 and 3.81 and 2.71 and 2.52 and 4.24 and 7.80 and 5.47 and 7.28 and 1.84 and 2.88"}, {"measurement": "amount of niacinamide recovered from tape strip, Avg", "setting": "strip 3, Active Application (magnetic applicator, Array #8)", "result": 8.37}, {"measurement": "amount of niacinamide recovered from tape strip, Avg", "setting": "strip 3, Passive Application (non-magnetic applicator)", "result": 5.69}, {"measurement": "amount of niacinamide recovered from tape strip", "setting": "strip 3, Passive Application (non-magnetic applicator), individual test sites, Subjects A-E, Site 1/2", "result": "3.51 and 5.43 and 6.33 and 3.77 and 6.64 and 7.64 and 6.14 and 9.62 and 2.43 and 5.36"}, {"measurement": "amount of niacinamide recovered from tape strip, Avg", "setting": "strip 4, Active Application (magnetic applicator, Array #8)", "result": 8.25}, {"measurement": "amount of niacinamide recovered from tape strip, Avg", "setting": "strip 4, Passive Application (non-magnetic applicator)", "result": 6.18}, {"measurement": "amount of niacinamide recovered from tape strip", "setting": "strip 4, Passive Application (non-magnetic applicator), individual test sites, Subjects A-E, Site 1/2", "result": "4.22 and 2.79 and 8.53 and 4.24 and 7.48 and 7.15 and 5.87 and 11.29 and 1.29 and 8.91"}, {"measurement": "amount of niacinamide recovered from tape strip, Avg", "setting": "strip 5, Active Application (magnetic applicator, Array #8)", "result": 7.68}, {"measurement": "amount of niacinamide recovered from tape strip, Avg", "setting": "strip 5, Passive Application (non-magnetic applicator)", "result": 4.91}, {"measurement": "amount of niacinamide recovered from tape strip", "setting": "strip 5, Passive Application (non-magnetic applicator), individual test sites, Subjects A-E, Site 1/2", "result": "4.57 and 3.79 and 6.08 and 2.74 and 6.35 and 6.21 and 5.61 and 7.10 and 2.27 and 4.36"}, {"measurement": "amount of niacinamide recovered from tape strip, Avg", "setting": "strip 6, Active Application (magnetic applicator, Array #8)", "result": 7.02}, {"measurement": "amount of niacinamide recovered from tape strip, Avg", "setting": "strip 6, Passive Application (non-magnetic applicator)", "result": 4.72}, {"measurement": "amount of niacinamide recovered from tape strip", "setting": "strip 6, Passive Application (non-magnetic applicator), individual test sites, Subjects A-E, Site 1/2", "result": "4.37 and 3.42 and 6.69 and 1.97 and 5.29 and 7.95 and 4.56 and 6.46 and 2.62 and 3.85"}, {"measurement": "amount of niacinamide recovered from tape strip, Avg", "setting": "strip 7, Active Application (magnetic applicator, Array #8)", "result": 5.52}, {"measurement": "amount of niacinamide recovered from tape strip, Avg", "setting": "strip 7, Passive Application (non-magnetic applicator)", "result": 3.66}, {"measurement": "amount of niacinamide recovered from tape strip", "setting": "strip 7, Passive Application (non-magnetic applicator), individual test sites, Subjects A-E, Site 1/2", "result": "3.57 and 3.37 and 4.35 and 1.87 and 3.82 and 6.89 and 5.41 and 0.19 and 2.67 and 4.47"}, {"measurement": "amount of niacinamide recovered from tape strip, Avg", "setting": "strip 8, Active Application (magnetic applicator, Array #8)", "result": 4.63}, {"measurement": "amount of niacinamide recovered from tape strip, Avg", "setting": "strip 8, Passive Application (non-magnetic applicator)", "result": 3.43}, {"measurement": "amount of niacinamide recovered from tape strip", "setting": "strip 8, Passive Application (non-magnetic applicator), individual test sites, Subjects A-E, Site 1/2", "result": "2.65 and 2.92 and 2.85 and 1.56 and 4.65 and 5.34 and 2.94 and 5.75 and 1.88 and 3.71"}, {"measurement": "amount of niacinamide recovered from tape strip, Avg", "setting": "strip 9, Active Application (magnetic applicator, Array #8)", "result": 5.11}, {"measurement": "amount of niacinamide recovered from tape strip, Avg", "setting": "strip 9, Passive Application (non-magnetic applicator)", "result": 3.59}, {"measurement": "amount of niacinamide recovered from tape strip", "setting": "strip 9, Passive Application (non-magnetic applicator), individual test sites, Subjects A-E, Site 1/2", "result": "2.95 and 2.37 and 2.24 and 2.00 and 3.78 and 6.70 and 2.79 and 7.20 and 2.15 and 3.70"}, {"measurement": "amount of niacinamide recovered from tape strip, Avg", "setting": "strip 10, Active Application (magnetic applicator, Array #8)", "result": 4.48}, {"measurement": "amount of niacinamide recovered from tape strip, Avg", "setting": "strip 10, Passive Application (non-magnetic applicator)", "result": 3.20}, {"measurement": "amount of niacinamide recovered from tape strip", "setting": "strip 10, Passive Application (non-magnetic applicator), individual test sites, Subjects A-E, Site 1/2", "result": "1.58 and 2.24 and 1.54 and 1.31 and 4.53 and 5.34 and 2.42 and 6.19 and 0.71 and 6.10"}, {"measurement": "amount of niacinamide recovered, Sum 2-10, Avg", "setting": "[3]", "result": 57.16}, {"measurement": "amount of niacinamide recovered, Sum 2-10", "setting": "[4]", "result": "49.17 and 40.65 and 72.98 and 32.23 and 70.46 and 76.77 and 48.95 and 85.20 and 28.48 and 66.67"}, {"measurement": "amount of niacinamide recovered, Sum 2-10, Avg", "setting": "[5]", "result": 39.48}, {"measurement": "amount of niacinamide recovered, Sum 2-10", "setting": "[6]", "result": "30.09 and 30.15 and 41.32 and 21.97 and 46.79 and 61.02 and 41.20 and 61.08 and 17.87 and 43.34"}, {"measurement": "amount of niacinamide recovered, Sum 6-10, Avg", "setting": "[3]", "result": 26.76}, {"measurement": "amount of niacinamide recovered, Sum 6-10", "setting": "[4]", "result": "23.12 and 19.16 and 30.14 and 12.25 and 40.38 and 38.27 and 21.85 and 35.82 and 15.32 and 31.26"}, {"measurement": "amount of niacinamide recovered, Sum 6-10, Avg", "setting": "[5]", "result": 18.59}, {"measurement": "amount of niacinamide recovered, Sum 6-10", "setting": "[6]", "result": "15.13 and 14.32 and 17.67 and 8.70 and 22.07 and 32.21 and 18.11 and 25.79 and 10.04 and 21.84"}]}]}
